Legend:
[1] = (§1) Cytotoxicity against human U87MG cells assessed as reduction in cell viability after 48 hrs by Z2 coulter counter method; format: functional, cell-based, U-87MG ATCC; details: U-87 MG
U-87MG ATCC [2] = test: as §1; format: functional, cell-based; details: TDE = time-dependent effect
[3] = (§2) Cytotoxicity against human U87MG cells assessed as reduction in cell viability after 72 hrs by Z2 coulter counter method; format: functional, cell-based, U-87MG ATCC; details: U-87 MG
U-87MG ATCC [4] = test: as §2; format: functional, cell-based; details: TDE = time-dependent effect
U-87MG ATCC [5] = test: Cytotoxicity against human U87MG cells assessed as reduction in cell viability by Z2 coulter counter method; format: functional, cell-based; details: TDE = time-dependent effect
U-87MG ATCC [6] = test: (§3) Cytotoxicity against human U87MG cells assessed as reduction in cell viability after 24 hrs by Z2 coulter counter method; format: functional, cell-based; details: TDE = time-dependent effect
[7] = Cytotoxicity against human HN13 cells assessed as reduction in cell viability after 72 hrs by Z2 coulter counter method; format: functional, cell-based; details: WSU-HN13, 72 h
[8] = Cytotoxicity against human HN13 cells assessed as reduction in cell viability after 24 hrs by Z2 coulter counter method; format: functional, cell-based; details: WSU-HN13, 24 h
HeLa [9] = test: Cytotoxicity against human HeLa cells assessed as reduction in cell viability after 48 hrs by Z2 coulter counter method; format: functional, cell-based
MCF7 [10] = test: Cytotoxicity against human MCF7 cells assessed as reduction in cell viability after 24 hrs by Z2 coulter counter method; format: functional, cell-based; details: MCF7, 24 h
MCF7 [11] = test: Cytotoxicity against human MCF7 cells assessed as reduction in cell viability after 48 hrs by Z2 coulter counter method; format: functional, cell-based; details: MCF7, 48 h
MCF7 [12] = test: Cytotoxicity against human MCF7 cells assessed as reduction in cell viability after 72 hrs by Z2 coulter counter method; format: functional, cell-based; details: MCF7, 72 h
MDA-MB-231 [13] = test: Cytotoxicity against human MDA-MB-231 cells assessed as reduction in cell viability after 48 hrs by Z2 coulter counter method; format: functional, cell-based; details: MDA-MB-231, 48 h
MDA-MB-231 [14] = test: Cytotoxicity against human MDA-MB-231 cells assessed as reduction in cell viability after 24 hrs by Z2 coulter counter method; format: functional, cell-based; details: MDA-MB-231, 24 h
MDA-MB-231 [15] = test: Cytotoxicity against human MDA-MB-231 cells assessed as reduction in cell viability after 72 hrs by Z2 coulter counter method; format: functional, cell-based; details: MDA-MB-231, 72 h
HeLa [16] = test: Cytotoxicity against human HeLa cells assessed as reduction in cell viability after 72 hrs by Z2 coulter counter method; format: functional, cell-based
[17] = Cytotoxicity against human HN13 cells assessed as reduction in cell viability after 48 hrs by Z2 coulter counter method; format: functional, cell-based; details: WSU-HN13, 48 h
HeLa [18] = test: Cytotoxicity against human HeLa cells assessed as reduction in cell viability after 24 hrs by Z2 coulter counter method; format: functional, cell-based
[19] = as §3; format: functional, cell-based, U-87MG ATCC; details: U-87 MG

SMILES: O=c1[nH]cc(F)c(=O)[nH]1 [FLUOROURACIL]
- IC50 [1]: 220 µM
- Activity (U-87MG ATCC [2]): tde
- IC50 [3]: 18.2 µM
- Activity (U-87MG ATCC [4]): tde
- Activity (U-87MG ATCC [5]): tde
- Activity (U-87MG ATCC [6]): tde

SMILES: O=C(Nc1ccc(Nc2ccc(OC3CCNCC3)cc2)cc1)c1cccc(-n2nc(C(=O)Nc3ccc(Nc4ccc(OC5CCNCC5)cc4)cc3)c3c2C(=O)NCC3)c1
- IC50 [7]: 26.1 µM
- IC50 [1]: 44.4 µM
- IC50 [8]: 30.6 µM
- IC50 (HeLa [9]): 17.6 µM
- IC50 [3]: 33.5 µM
- IC50 (MCF7 [10]): 78.3 µM
- IC50 (MCF7 [11]): 32.9 µM
- IC50 (MCF7 [12]): 10.6 µM
- IC50 (MDA-MB-231 [13]): 42.6 µM
- IC50 (MDA-MB-231 [14]): 55 µM
- IC50 (MDA-MB-231 [15]): 28.9 µM
- IC50 (HeLa [16]): 16 µM
- IC50 [17]: 27 µM
- IC50 (HeLa [18]): 17.6 µM
- IC50 [19]: 60 µM

SMILES: Cn1c(=O)n(-c2ccc(C(C)(C)C#N)cc2)c2c3cc(-c4cnc5ccccc5c4)ccc3ncc21 [DACTOLISIB]
- IC50 [1]: 0.6 µM
- Activity (U-87MG ATCC [2]): tde
- IC50 [3]: 0.16 µM
- Activity (U-87MG ATCC [4]): tde
- Activity (U-87MG ATCC [5]): tde
- IC50 [19]: 825 µM
- Activity (U-87MG ATCC [6]): tde
